Measurements from article PMC11768653, “Characterization of the Phosphotransferase from Bacillus subtilis 1101 That Is Responsible for the Biotransformation of Zearalenone” (Toxins, 2025).

Target: T1, ZPH1101 (Bacillus subtilis, UniProt O34796)
T1 construct: gene yvkC; full-length zph1101 in pET29a, N-terminal 6xHis, E. coli BL21(DE3), Ni-NTA, 90 kDa
Experiment: HPLC of residual ZEA, Michaelis-Menten fit
Assay type: biochemical
Conditions: ATP, Mg2+; pH 8.0, 45 °C
Method: HPLC of residual ZEA, Michaelis-Menten fit on ZPH1101 | Michaelis constant (Km), and catalytic constant (kcat) were calculated through fitting to be

T1 sequence (O34796 whole entry): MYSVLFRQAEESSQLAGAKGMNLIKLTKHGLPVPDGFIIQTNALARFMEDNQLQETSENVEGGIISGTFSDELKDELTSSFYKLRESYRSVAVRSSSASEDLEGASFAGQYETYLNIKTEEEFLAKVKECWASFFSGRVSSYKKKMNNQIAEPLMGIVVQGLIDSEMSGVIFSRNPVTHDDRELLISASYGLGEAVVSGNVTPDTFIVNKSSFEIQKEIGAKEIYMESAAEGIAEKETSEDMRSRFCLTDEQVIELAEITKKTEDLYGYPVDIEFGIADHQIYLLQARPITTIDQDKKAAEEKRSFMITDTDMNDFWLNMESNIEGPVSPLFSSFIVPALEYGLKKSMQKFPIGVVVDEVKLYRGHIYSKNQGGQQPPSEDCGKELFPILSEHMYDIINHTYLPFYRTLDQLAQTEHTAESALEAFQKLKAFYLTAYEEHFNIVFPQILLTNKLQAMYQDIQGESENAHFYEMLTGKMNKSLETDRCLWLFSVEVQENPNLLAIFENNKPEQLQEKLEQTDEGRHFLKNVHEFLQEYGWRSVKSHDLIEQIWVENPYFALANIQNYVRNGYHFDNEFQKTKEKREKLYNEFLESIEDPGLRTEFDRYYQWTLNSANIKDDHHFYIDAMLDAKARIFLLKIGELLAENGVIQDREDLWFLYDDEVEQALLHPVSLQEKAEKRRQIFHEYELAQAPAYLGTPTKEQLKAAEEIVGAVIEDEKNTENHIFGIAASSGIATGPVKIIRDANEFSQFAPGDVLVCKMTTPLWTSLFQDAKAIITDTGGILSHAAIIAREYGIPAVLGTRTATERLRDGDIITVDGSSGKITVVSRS

For `C[C@H]1CCCC(=O)CCC/C=C/c2cc(O)cc(O)c2C(=O)O1` [zearalenone], which Km is on record?
Its Km is 18.2 µM.
